Measurements as given in ChEMBL document CHEMBL5532682, “Recent advances of tryptanthrin and its derivatives as potential anticancer agents” (RSC Med Chem, 2024).

Legend:
MCF7 = test: Antiproliferative activity against human MCF7 cells assessed as inhibition of cell growth; assay type: functional, cell-based
A549 [1] = test: Antiproliferative activity against human A549 cells assessed as inhibition of cell growth; assay type: functional, cell-based
HeLa = test: Antiproliferative activity against human HeLa cells assessed as inhibition of cell growth; assay type: functional, cell-based
[2] = Cytotoxicity against human HEK293 cells assessed as inhibition of cell growth; assay type: toxicity, cell-based
NCI/ADR-RES = test: Growth inhibition of human MCF7ADR cells assessed as reduction in cell viability; assay type: functional
U-251 = test: Growth inhibition of human U-251 cells assessed as reduction in cell viability; assay type: functional
SW-620 = test: Growth inhibition of human SW620 cells assessed as reduction in cell viability; assay type: functional
NCI-H522 = test: Growth inhibition of human NCI-H522 cells assessed as reduction in cell viability; assay type: functional
M14 = test: Growth inhibition of human M14 cells assessed as reduction in cell viability; assay type: functional
SK-OV-3 = test: Growth inhibition of human SK-OV-3 cells assessed as reduction in cell viability; assay type: functional
DU-145 = test: Growth inhibition of human DU-145 cells assessed as reduction in cell viability; assay type: functional
A498 = test: Growth inhibition of human A498 cells assessed as reduction in cell viability; assay type: functional
A549 [3] = test: Antiproliferative activity against human A549 cells incubated by 48 hrs by MTT assay; assay type: functional, cell-based; conditions: A549, 48 h
K562 = test: Antiproliferative activity against human K562 cells incubated by 48 hrs by MTT assay; assay type: functional, cell-based; conditions: K562, 48 h
HepG2 = test: Antiproliferative activity against human HepG2 cells incubated by 48 hrs by MTT assay; assay type: functional, cell-based; conditions: HepG2, 48 h
PC-3 = test: Antiproliferative activity against human PC-3 cells incubated by 48 hrs by MTT assay; assay type: functional, cell-based; conditions: PC-3, 48 h
HT-29 = test: Antiproliferative activity against human HT-29 cells; assay type: functional, cell-based
PANC-1 = test: Antiproliferative activity against human PANC-1 cells; assay type: functional, cell-based
MDA-MB-231 [4] = test: Antiproliferative activity against human MDA-MB-231 cells; assay type: functional, cell-based
[5] = Cytotoxicity activity against human HDF cells; assay type: toxicity, cell-based; conditions: HDF cells (NHDF)
A549 [6] = test: Antiproliferative activity against human A549 cells measured after 48 hrs by MTT assay; assay type: functional, cell-based; conditions: A549, 48 h
HCT-116 [7] = test: Antiproliferative activity against human HCT-116 cells measured after 48 hrs by MTT assay; assay type: functional, cell-based; conditions: HCT-116, 48 h
MDA-MB-231 [8] = test: Antiproliferative activity against human MDA-MB-231 cells measured after 48 hrs by MTT assay; assay type: functional, cell-based; conditions: MDA-MB-231, 48 h
A549 [9] = test: Antiproliferative activity against human A549 cells measured after 48 hrs; assay type: functional, cell-based; conditions: A549, 48 h
HCT-116 [10] = test: Antiproliferative activity against human HCT-116 cells measured after 48 hrs; assay type: functional, cell-based; conditions: HCT-116, 48 h
MDA-MB-231 [11] = test: Antiproliferative activity against human MDA-MB-231 cells measured after 48 hrs; assay type: functional, cell-based; conditions: MDA-MB-231, 48 h
Hep 3B2 [12] = test: Antiproliferative activity against human Hep3B cells measured after 48 hrs by MTT assay; assay type: functional, cell-based
Hep 3B2 [13] = test: Anticancer activity against human Hep3B cells measured after 48 hrs; assay type: functional, cell-based

Which IC50 (MCF7) does the source give for `O=C1C2C=CC=CC2=NC2/C(=N\Nc3nc(-c4ccc(F)cc4)cs3)c3ccccc3N12` (configuration not stated) here?
Its IC50 is 10.2 µM.

What about the IC50 (A549 [1]) of the same compound?
Its IC50 is 6.67 µM.

And the IC50 (HeLa)?
Its IC50 is 9.54 µM.

What about the IC50 [2] of the same compound?
The IC50 was 86.1 µM.

Which results are given for `O=c1c2ccccc2nc2n1-c1ccccc1[C@@]2(O)OCCOc1ccccc1`?
GI50 (NCI/ADR-RES): > 100 µM; GI50 (U-251): > 100 µM; GI50 (SW-620): > 100 µM; GI50 (NCI-H522): > 100 µM; GI50 (M14): > 100 µM; GI50 (SK-OV-3): > 100 µM; GI50 (DU-145): > 100 µM; GI50 (A498): > 100 µM

For `O=C1c2ccccc2-n2c1nc1cccc(F)c1c2=O`, which IC50 (A549 [3]) is on record?
Its IC50 is 5.45 µM.

And the IC50 (K562)?
Its IC50 is 6.86 µM.

And the IC50 (HepG2)?
The IC50 was 6.26 µM.

What about the IC50 (PC-3) of the same compound?
Its IC50 is 12.4 µM.

With `Cc1nn(Br)c2c1[C@@]1(C(C#N)=C(N)O2)c2ccccc2-n2c1nc1ccccc1c2=O` as the compound, how does the IC50 (HT-29) read?
Its IC50 is 79.7 µM.

And the IC50 (PANC-1)?
Its IC50 is 48.2 µM.

And the IC50 (MDA-MB-231 [4])?
The IC50 was 52.4 µM.

What about the IC50 [5] of the same compound?
The IC50 was greater than 100 µM.

What does the source list for `Cc1nn(Br)c2c1[C@@]1(C(C#N)=CO2)c2cc(-c3cccc(Cl)c3)ccc2-n2c1nc1ccccc1c2=O`?
IC50 (HT-29): 63.8 µM; IC50 (PANC-1): 96.4 µM; IC50 (MDA-MB-231 [4]): 81.3 µM; IC50 [5]: > 100 µM

Which IC50 (A549 [6]) does the source give for `O=C1c2c(ccc(F)c2N2CCN(CCO)CC2)-n2c1nc1ccccc1c2=O` here?
The IC50 was 41.4 µM.

What about the IC50 (HCT-116 [7]) of the same compound?
The IC50 was greater than 100 µM.

And the IC50 (MDA-MB-231 [8])?
The IC50 was greater than 100 µM.

What about the IC50 (A549 [9]) of the same compound?
The IC50 was 41.4 µM.

And the IC50 (HCT-116 [10])?
The IC50 was greater than 100 µM.

And the IC50 (MDA-MB-231 [11])?
The IC50 was greater than 100 µM.

For `O=C1c2cc(C(F)(F)F)ccc2-n2c1nc1ccccc1c2=O`, which IC50 (Hep 3B2 [12]) is on record?
The IC50 was 3.4 µM.

What does the source list for `O=C1c2cc(F)c(F)cc2-n2c1nc1ccccc1c2=O`?
IC50 (A549 [3]): 2.15 µM; IC50 (K562): 3.31 µM; IC50 (HepG2): 9.84 µM; IC50 (PC-3): 10.4 µM

For `CCCC[C@]1(O)c2ccccc2-n2c1nc1ccccc1c2=O`, which GI50 (NCI/ADR-RES) is on record?
The GI50 was greater than 100 µM.

And the GI50 (U-251)?
Its GI50 is greater than 100 µM.

And the GI50 (SW-620)?
Its GI50 is greater than 100 µM.

What about the GI50 (NCI-H522) of the same compound?
The GI50 was greater than 100 µM.

What about the GI50 (M14) of the same compound?
The GI50 was greater than 100 µM.

And the GI50 (SK-OV-3)?
The GI50 was greater than 100 µM.

And the GI50 (DU-145)?
Its GI50 is greater than 100 µM.

And the GI50 (A498)?
The GI50 was greater than 100 µM.

Which results are given for `Cc1n[nH]c2c1[C@@]1(C(C#N)=C(N)O2)c2cc(-c3ccccc3)ccc2-n2c1nc1ccccc1c2=O`?
IC50 (HT-29): 97.9 µM; IC50 (PANC-1): > 100 µM; IC50 (MDA-MB-231 [4]): 72.2 µM; IC50 [5]: > 100 µM

What does the source list for `N#Cc1ccc(-c2csc(N/N=C3/c4ccccc4N4C(=O)C5C=CC=CC5=NC34)n2)cc1` (configuration not stated)?
IC50 (MCF7): 6.05 µM; IC50 (A549 [1]): 8.18 µM; IC50 (HeLa): 7.08 µM; IC50 [2]: 92.3 µM

Which IC50 (A549 [3]) does the source give for `O=C1c2cccc(F)c2-n2c1nc1ccccc1c2=O` here?
Its IC50 is 6.45 µM.

And the IC50 (K562)?
The IC50 was 3.69 µM.

And the IC50 (HepG2)?
Its IC50 is 5.89 µM.

What about the IC50 (PC-3) of the same compound?
Its IC50 is 7.05 µM.

Which IC50 (Hep 3B2 [12]) does the source give for `CN(C)c1ccc2c(c1)C(=O)c1nc3ccccc3c(=O)n1-2` here?
Its IC50 is 9 µM.

Which results are given for `O=C1C2C=CC=CC2=NC2/C(=N\Nc3nc(-c4ccc(Cl)cc4)cs3)c3ccccc3N12` (configuration not stated)?
IC50 (MCF7): 18.2 µM; IC50 (A549 [1]): 11.1 µM; IC50 (HeLa): 21.7 µM; IC50 [2]: 80.9 µM

Which results are given for `Cc1n[nH]c2c1[C@@]1(C(C#N)=CO2)c2cc(-c3cccc(Cl)c3)ccc2-n2c1nc1ccccc1c2=O`?
IC50 (HT-29): 98.8 µM; IC50 (PANC-1): > 100 µM; IC50 (MDA-MB-231 [4]): 52.6 µM; IC50 [5]: > 100 µM

With `O=C1c2c(N3CCNCC3)cccc2-n2c1nc1ccccc1c2=O` as the compound, how does the IC50 (A549 [6]) read?
Its IC50 is greater than 100 µM.

And the IC50 (HCT-116 [7])?
The IC50 was greater than 100 µM.

And the IC50 (MDA-MB-231 [8])?
Its IC50 is greater than 100 µM.

And the IC50 (A549 [9])?
Its IC50 is 13.7 µM.

And the IC50 (HCT-116 [10])?
The IC50 was 90 µM.

What about the IC50 (MDA-MB-231 [11]) of the same compound?
The IC50 was 56.1 µM.

Which results are given for `O=C1c2c(ccc(F)c2N2CCN(c3ccccn3)CC2)-n2c1nc1ccccc1c2=O`?
IC50 (A549 [6]): > 100 µM; IC50 (HCT-116 [7]): > 100 µM; IC50 (MDA-MB-231 [8]): > 100 µM; IC50 (A549 [9]): > 100 µM; IC50 (HCT-116 [10]): > 100 µM; IC50 (MDA-MB-231 [11]): > 100 µM

With `Nc1ccc2c(c1)C(=O)c1nc3ccccc3c(=O)n1-2` as the compound, how does the IC50 (Hep 3B2 [12]) read?
The IC50 was 5.8 µM.

And the GI50 (NCI/ADR-RES)?
The GI50 was 1 µM.

What about the GI50 (U-251) of the same compound?
Its GI50 is 4.5 µM.

What about the GI50 (SW-620) of the same compound?
The GI50 was 25 µM.

And the GI50 (NCI-H522)?
Its GI50 is 48 µM.

And the GI50 (M14)?
Its GI50 is 15 µM.

What about the GI50 (SK-OV-3) of the same compound?
Its GI50 is 25 µM.

What about the GI50 (DU-145) of the same compound?
The GI50 was 8 µM.

And the GI50 (A498)?
The GI50 was 2 µM.

Which IC50 (Hep 3B2 [13]) does the source give for `O=C1c2ccccc2-n2c1nc1ccc(Br)cc1c2=O` here?
The IC50 was 9 µM.

With `COc1cccc2c1C(=O)c1c(O)c3c(c(O)c1C2=O)C[C@@](O)(C(=O)CO)C[C@@H]3O[C@H]1C[C@H](N)[C@H](O)[C@H](C)O1` [DOXORUBICIN] as the compound, how does the IC50 (Hep 3B2 [13]) read?
The IC50 was 0.26 µM.
